# Target: T1, Acetylcholinesterase (Rattus norvegicus) (UniProt P37136)
# T1 sequence (whole entry): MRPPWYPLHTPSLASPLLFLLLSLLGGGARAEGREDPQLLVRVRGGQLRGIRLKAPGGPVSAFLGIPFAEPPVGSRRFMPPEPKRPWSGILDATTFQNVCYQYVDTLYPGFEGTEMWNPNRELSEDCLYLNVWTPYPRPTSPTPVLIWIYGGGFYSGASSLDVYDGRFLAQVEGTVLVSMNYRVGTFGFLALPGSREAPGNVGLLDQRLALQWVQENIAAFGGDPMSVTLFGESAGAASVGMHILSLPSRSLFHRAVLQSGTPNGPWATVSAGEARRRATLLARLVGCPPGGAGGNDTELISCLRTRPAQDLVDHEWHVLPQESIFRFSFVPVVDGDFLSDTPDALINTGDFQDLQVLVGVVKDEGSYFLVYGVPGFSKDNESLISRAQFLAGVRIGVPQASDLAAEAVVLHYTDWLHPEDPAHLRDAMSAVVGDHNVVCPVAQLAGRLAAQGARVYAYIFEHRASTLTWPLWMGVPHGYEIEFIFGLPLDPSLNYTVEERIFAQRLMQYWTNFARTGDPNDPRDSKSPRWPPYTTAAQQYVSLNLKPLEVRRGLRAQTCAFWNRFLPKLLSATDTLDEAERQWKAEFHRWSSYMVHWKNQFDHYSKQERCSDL
# Test: Inhibitory activity against AChE from rat brain homogenate
# Format: functional
# Conditions: concentration not given here
structure (smiles),measurement,value
CCOP(=S)(OCC)Oc1nc(Cl)c(Cl)cc1Cl,inhibition,95%
